In general, inhibition refers to the percentage by which the read-out fell short of the control.

Test [1] deals with GBA1 in mouse brain lysates. The experiment in a line: GBA1 tissue assay, 4MUG turnover in mouse brain lysates. Particulars: mouse brain lysate 10 μg, without sodium taurocholate. Format: biochemical. The protocol: (§1) Human cortex was acquired from brain banks (Tissue Solutions: http://www.tissue-solutions.com; Proteogenex: http://www.proteogenex.com). Human cortex samples were obtained from deceased aged Caucasian subjects without any diagnosis of neurodegenerative disorders. Mouse brain was obtained from 4–7 month old C57BL/6J mice. All mouse experiments were performed in accordance with the specifications of both the National Institutes of Health Guide for the Care and Use of Laboratory Animals, studies were approved by Pfizer’s Internal Animal Care and Use Committee (IACUC). […] Samples were then centrifuged at 20,000g for 15 minutes at 4°C. Supernatant was collected, and used for activity assays and Western blots. Protein concentration was determined using the Pierce BCA protein assay kit. Tissue lysates and pellets were stored at -80°C until use. For enzymatic activity assays, lysates were subjected only to one free-thaw cycle. Independent replicates were obtained using brain lysates from either different human subjects or different mice. […] Brain tissue lysates were diluted to 0.4 μg/ μl of protein in the same homogenization buffer, as described above. 25 μl of diluted lysate was added to the plate (Costar, 7200567). Lysates were then incubated on ice in the presence or absence of a compound for 30 minutes. 100 μl of assay buffer was then added to the plate. The same assay buffer was used as in the cell free/recombinant experiments and processed as described above.

The target in test [2] is T1, GBA1 in mouse brain lysates (Mus musculus, UniProt P17439).
T1 construct: Mouse brain was obtained from 4–7 month old C57BL/6J mice; from tissue; host or cells: brain of C57BL/6J mice
T1 sequence (P17439 20-515): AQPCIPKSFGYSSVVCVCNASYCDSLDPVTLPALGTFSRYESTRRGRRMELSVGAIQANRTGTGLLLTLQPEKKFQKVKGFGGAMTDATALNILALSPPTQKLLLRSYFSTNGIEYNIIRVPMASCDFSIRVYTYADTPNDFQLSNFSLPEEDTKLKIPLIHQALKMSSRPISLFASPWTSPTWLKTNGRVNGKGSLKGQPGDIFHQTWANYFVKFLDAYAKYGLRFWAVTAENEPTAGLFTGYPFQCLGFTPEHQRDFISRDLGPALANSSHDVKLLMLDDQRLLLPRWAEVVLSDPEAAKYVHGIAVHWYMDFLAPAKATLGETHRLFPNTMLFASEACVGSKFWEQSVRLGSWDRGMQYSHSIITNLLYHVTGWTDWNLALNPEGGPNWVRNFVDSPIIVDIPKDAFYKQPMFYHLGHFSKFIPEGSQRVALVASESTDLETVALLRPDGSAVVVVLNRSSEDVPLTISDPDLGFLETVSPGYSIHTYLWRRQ
Described as above. Particulars: mouse brain lysate 10 μg, with sodium taurocholate. The format is biochemical. The method, then:
as §1

As for `O[C@H]1[C@H](O)[C@@H](O)[C@@H]2O[C@@H]2[C@@H]1O` [CBE], in test [1] (1mM), the “% inhibition: - NaTc” value was 32% ± 4%. Further, in test [2] (1mM), the “% inhibition: + NaTc” value was 82% ± 1%.

As for `OC[C@H]1CNC[C@@H](O)[C@@H]1O` [Isofagomine, isofagomine], in test [1] (1 μM), the “% inhibition: - NaTc” value is recorded as 21% ± 3%. The inhibition at 1 µM in test [2] (1 μM, read-out: % inhibition: + NaTc) came out at 82%.

Values taken from PMC4357465, “Tool Compounds Robustly Increase Turnover of an Artificial Substrate by Glucocerebrosidase in Human Brain Lysates” (PLoS ONE, 2015).
